US20250025451A1, “TREATMENT OF CANCER WITH KDM4 INHIBITORS” (Celgene Corporation, priority 2021, published 2025)
Like-named read-outs stand apart in the source and are kept apart here.

How the values were obtained:
[1] = tested on: SU34 patient-derived colon cancer organoid model; experiment: organoid colony formation assay, SU34; type: cell-based, human
Protocol: (§1) The IC50 values for Compound 1 inhibition of colony formation and viability were determined for the patient-derived colon cancer organoid models: SU60, T002C, SU62, SU34, SU103, T03SC, and SU106, patient-derived pancreatic cancer organoid models PA016SF, PA0143F, T016P, and T028P, and a patient-derived breast cancer organoid model FS5S3.
(§2) Colony formation and viability assays were performed in multiwell plates seeded with organoids using an in vitro culture system composed of a Matrigel layer, media containing a defined set of growth factors, and co-culture with Wnt3 A-secreting mouse embryonic fibroblasts. Assays were initiated by adding either DMSO as a negative control, or an inhibitor panobinostatat 100×IC50 concentration as a positive control, or serially diluted Compound 1. The cultures were incubated for 168 or 144 hours after which the number of viable organoids in each test well was assessed respectively using one of two detection methods: CTG or staining with calcein-AM followed by imaging and colony counting. Colony count or viability of cells treated with compound 1 was expressed as a percent of the negative control. Aggregated Percent of Control values were plotted against the corresponding Compound 1 concentration and the absolute IC50 value was determined from a non-linear regression curve as the concentration where inhibition was 50% of the control.

[2] = tested on: T028P patient-derived pancreatic cancer organoid model; experiment: organoid colony formation assay, T028P; type: cell-based, human
Protocol: as §1, §2

[3] = tested on: GXA-3036 gastric adenocarcinoma patient-derived xenograft; experiment: in vivo efficacy, GXA-3036 gastric adenocarcinoma patient-derived xenograft model; conditions: GXA-3036 PDX; for Median Tumor Volume Diff. (Day 35): Day 35 minus Day 0; for Median Tumor Volume Diff. (Day 38): Day 38 minus Day 0
Protocol: The therapeutic in vivo efficacy of Compound 1 was evaluated in SU60 colorectal cancer, KYSE-150 esophageal cancer, COH70 triple-negative breast cancer, GXA-3036 gastric adenocarcinoma and OCI-LY19 Diffuse Large B-Cell Non-Hodgkin's Lymphoma xenograft models. In all studies, efficacy was determined based on percent tumor growth inhibition (TGI), differences in mean tumor growth, and statistical assessment of differences in net tumor volume distributions on the day of TGI analysis between control and treated animals. Tolerability was assessed based on differences in mean body weights between control and treated animals over the course of the study.
The in vivo efficacy and tolerability of Compound 1, administered orally as the lysine salt form suspended in a vehicle comprised of 5% 2-hydroxypropyl-beta-cyclodextrin (HPBCD) in 50 mM phosphate buffer (pH 7.4), were evaluated in female immunodeficient NMRI-Foxn1nu mice using the subcutaneous gastric adenocarcinoma GXA-3036, a moderately differentiated intestinal type (based on Lauren's criteria) PDX model of Asian origin. Each mouse was inoculated subcutaneously in the right flank with a GXA-3036 tumor fragment (3 to 4 mm edge length). When the average tumor size reached ˜109 mm3, test animals were randomized into 5 groups consisting of 8 mice per group and treatments were initiated. Control mice received 5% HPBCD in 50 mM phosphate buffer (pH 7.4) vehicle PO 3 on/4 off. Treated mice received the Compound 1 lysine salt form in vehicle at 5, 15, or 50 mg/kg on the same schedule or at 22.5 mg/kg 2 on/5 off. One control animal, classified as moribund, was euthanized on Day 17 and was censored from analysis. Individual tumors were measured twice weekly in two dimensions using a caliper, and the tumor volumes (TV) in mm3 were calculated using the formula: TV=0.5 a×b2, where a and b are the long and short diameters in mm, respectively. Mean tumor volumes±SEM were calculated and plotted versus days of dosing (FIG. 14 left panel). Body weights were measured twice weekly. Body weights±SEM were calculated and plotted versus days of dosing (FIG. 14 right panel).
TGI was determined on Days 35 and 38 as (1−Difftreated/Diffcontrol)×100. The differences in median net tumor volumes on the days of TGI analysis for treated versus control animals were evaluated statistically using the non-parametric Kruskal-Wallis test followed by Dunn's multiple comparisons test. The reported adjusted p-values are for both days of TGI analysis where a calculated probability (p)≤0.05 was considered statistically significant.

[4] = tested on: erythroid hematopoietic progenitor cells derived from human bone marrow; experiment: erythroid colony formation of hematopoietic progenitor cells; type: cell-based
Protocol: Compound 1 was evaluated for its effects on proliferation of erythroid and myeloid hematopoietic progenitor cells derived from human bone marrow at […] Technologies Inc. (Vancouver, BC, Canada).
Cells were thawed rapidly at 37° C. into DNAse I and then diluted in 10 mL of Iscove's Modified Dulbecco's medium containing 2% fetal bovine serum (IMDM+2% FBS) and washed by centrifugation (1200 rpm for 10 minutes at room temperature). The supernatant was discarded and the cell pellet resuspended in a known volume of IMDM+2% FBS. A nucleated cell count (3% glacial acetic acid) and viability assessment (trypan blue exclusive test) were performed.
Compound 1 and positive control (panobinostat) were diluted in DMSO and tested at concentrations ranging from 0.002 μM to 5 μM in final media. These dilutions provided the appropriate final test concentrations required for the test and control articles ([…], and 0.002 μM).
Test and control articles were incubated with human bone marrow hematopoietic progenitor cells. After 14 days, cell colonies were assessed.
To calculate the concentration of 50% and 90% inhibition of colony growth (IC50 and IC90) for each test article, a dose response curve was generated plotting the log of the test article concentration versus the percentage of control colony growth using GraphPad Prism. […] The IC50 and IC90 values for both test and control articles were derived from an interpolation of the curve fit. In cases where the IC50/90 value reported by GraphPad Prism is a value beyond the range of concentrations that were actually tested, if this value is more than 4 times the highest concentration tested, or where GraphPad Prism cannot calculate an IC50/90 value, notations of >5 μM (for test article compound 1) are used.

[5] = 15 mg/kg PO 3 on/4 off, 15 mg/kg
[6] = 22.5 mg/kg PO 2 on/5 off, 22.5 mg/kg
[7] = 50 mg/kg PO 3 on/4 off, 50 mg/kg

## CC(C)c1ccc(N(C)c2ccc3c(c2)OCC[C@H]3CNc2cnccc2C(=O)O)cc1 [Compound 1, 3-({[(4R)-7-{methyl[4-(propan-2-yl)phenyl]amino}-3,4-dihydro-2H-1-benzopyran-4-yl]methyl}amino)pyridine-4-carboxylic acid]
[1]; Homo sapiens, SU34 colorectal carcinoma model
  IC50: > 10 µM
[1]; SU34 human colorectal carcinoma organoid, 144 hrs, Colony Counts
  IC50: > 10 µM
[2]; Homo sapiens, T028P pancreatic carcinoma model
  IC50: > 10 µM
[2]; T028P human pancreatic carcinoma organoid, 144 hrs, Colony Counts
  IC50: > 10 µM
[3]; female NMRI-Foxn1nu mice, all regimens
  tolerability (mean body weights): well-tolerated
[3]; female NMRI-Foxn1nu mice, lysine salt 5 mg/kg (free acid equivalents) PO 3 on/4 off
  Median Tumor Volume Day 35: 391 mm^3
[3]; female NMRI-Foxn1nu mice, lysine salt 15 mg/kg (free acid equivalents) PO 3 on/4 off
  Median Tumor Volume Day 35: 278 mm^3
[3]; female NMRI-Foxn1nu mice, lysine salt 22.5 mg/kg (free acid equivalents) PO 2 on/5 off
  Median Tumor Volume Day 35: 447 mm^3
[3]; female NMRI-Foxn1nu mice, lysine salt 50 mg/kg (free acid equivalents) PO 3 on/4 off
  Median Tumor Volume Day 35: 371 mm^3
[3]; 5 mg/kg PO 3 on/4 off
  Median Tumor Volume Day 38: 460 mm^3
  Median Tumor Volume Diff. (Day 35): 282 mm^3
  Median Tumor Volume Diff. (Day 38): 351 mm^3
[3]; 5 mg/kg PO 3 on/4 off, 5 mg/kg
  % TGI (Day 35): 52%
  % TGI (Day 38): 43%
[3]; 15 mg/kg PO 3 on/4 off
  Median Tumor Volume Day 38: 298 mm^3
  Median Tumor Volume Diff. (Day 35): 169 mm^3
  Median Tumor Volume Diff. (Day 38): 189 mm^3
[3]; [5]
  % TGI (Day 35): 71%
  % TGI (Day 38): 69%
[3]; 22.5 mg/kg PO 2 on/5 off
  Median Tumor Volume Day 38: 470 mm^3
  Median Tumor Volume Diff. (Day 35): 338 mm^3
  Median Tumor Volume Diff. (Day 38): 361 mm^3
[3]; [6]
  % TGI (Day 35): 42%
  % TGI (Day 38): 41%
[3]; 50 mg/kg PO 3 on/4 off
  Median Tumor Volume Day 38: 403 mm^3
  Median Tumor Volume Diff. (Day 35): 262 mm^3
  Median Tumor Volume Diff. (Day 38): 294 mm^3
[3]; [7]
  % TGI (Day 35): 55%
  % TGI (Day 38): 52%
[4]; 336 h, human bone marrow progenitor cells, 14 days, read-out: IC50, inhibition of erythroid colony formation
  IC50: > 5 µM
[4]; 336 h, human bone marrow progenitor cells, colony growth after 14 days
  IC90: > 5 µg/mL
[4]; 336 h, human bone marrow progenitor cells, colony growth after 14 days, read-out: Erythroid IC50
  IC50: > 5 µg/mL
[4]; erythroid derived colonies
  concentrations at which colony morphology (size and density) was slightly compromised: ≥ 1.67 μM
[4]; progenitor cells from normal human bone marrow, p>0.01
  effect on colony formation compared to 0.1% DMSO: no significant effect
